Laboratory results taken from publication PMC3760249 (mBio, 2013).

Key:
AppA [1] = target: T1, AppA (Cereibacter sphaeroides, UniProt Q53119); test: biochemical
T1 sequence (Q53119 1-450): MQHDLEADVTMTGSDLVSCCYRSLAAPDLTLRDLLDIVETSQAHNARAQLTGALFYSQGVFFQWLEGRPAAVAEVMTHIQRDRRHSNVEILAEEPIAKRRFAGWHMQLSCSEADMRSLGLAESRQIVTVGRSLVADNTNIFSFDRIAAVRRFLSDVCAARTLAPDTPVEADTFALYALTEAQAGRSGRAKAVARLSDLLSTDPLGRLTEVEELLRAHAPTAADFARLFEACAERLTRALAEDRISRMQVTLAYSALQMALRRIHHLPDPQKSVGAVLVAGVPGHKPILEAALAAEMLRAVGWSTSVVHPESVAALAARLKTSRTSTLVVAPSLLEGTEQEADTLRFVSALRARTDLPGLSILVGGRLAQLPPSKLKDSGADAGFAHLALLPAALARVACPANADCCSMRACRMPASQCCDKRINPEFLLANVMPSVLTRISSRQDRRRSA

AppA [2] = target: T1, AppA; test: co-purification, flavin absorption spectrum; type: binding; conditions: BLUF domain cofactor as purified

SMILES	Kd (AppA [1])	co-purification, flavin absorption spectrum (AppA [2])
C=CC1=C(C)C2=Cc3c(C=C)c(C)c4[n]3[Fe+][n]3c(c(C)c(CCC(=O)O)c3=CC3=NC(=C4)C(C)=C3CCC(=O)O)=CC1=N2 [heme]	1250 ± 440 nM	
Cc1cc2nc3c(=O)[nH]c(=O)nc-3n(C[C@H](O)[C@H](O)[C@H](O)COP(=O)(O)OP(=O)(O)OC[C@H]3O[C@@H](n4cnc5c(N)ncnc54)[C@H](O)[C@@H]3O)c2cc1C [flavin adenine dinucleotide]		it does contain flavin adenine dinucleotide (FAD) as the BLUF domain cofactor
